# B1: DHFRMp fused to eGFP (chimera), free in bulk solution (Moritella profunda) (protein)
# chain: MIVSMIAALANNRVIGLDNKMPWHLPAELQLFKRATLGKPIVMGRNTFESIGRPLPGRLNIVLSRQTDYQPEGVTVVATLEDAVVAAGDVEELMIIGGATIYNQCLAAADRLYLTHIELTTEGDTWFPDYEQYNWQEIEHESYAADDKNPHNYRFSLLERVK
# notes: N-terminal His7-eGFP (A206K)-linker with TEV site-DHFRMp at the C-terminus; fusion uncut; E. coli BL21; not encapsulated
# B2: GroES (natural protein, Escherichia coli, UniProt P0A6F9 1-97, looked up)
# chain: MNIRPLHDRVIVKRKEVETKSAGGIVLTGSAAAKSTRGEVLAVGNGRILENGEVKPLDVKVGDIVIFNDGYGVKSEKIDNEEVLIMSESDILAIVEA
# notes: GroES, co-factor of GroEL in the Escherichia coli GroE system; used as 'GroES oligomer'; Expression and purification of GroES are not described; also called GroES oligomer
# Tests used:
# [1] = target: T1, DHFRMp fused to eGFP (chimera), free in bulk solution (Moritella profunda, UniProt Q70YQ6); assay: differential scanning fluorimetry, SYPRO Orange; format: binding; details: 500 µM ligand, 5 µM chimera, working buffer pH 8.0; transition of the DHFRMp part
# T1 construct: gene dyrA; N-terminal His7-eGFP (A206K)-linker with TEV site-DHFRMp at the C-terminus; fusion uncut; E. coli BL21; not encapsulated
# purified protein = substrate: Nc1nc2c(c(=O)[nH]1)N=C(CNc1ccc(C(=O)N[C@@H](CCC(=O)O)C(=O)O)cc1)CN2; assay: purified protein; format: biochemical, Moritella profunda; details: 350 µM NADPH, 23 °C, working buffer (20 mM Hepes pH 8.0, 100 mM KCl, 50 mM MgCl2, 50 mM Na2SO4, 10 mM NaF, 1 mM BeSO4, 1 mM DTT), free chimera in bulk solution
# GroEL = target: T2, GroEL (Escherichia coli, UniProt P0A6F5 1-548); assay: SEC; freshly assembled football complexes: acid-denatured eGFP added to GroEL and GroES oligomers in folding buffer, assembly started with Na2SO4, NaF, BeSO4 and ATP; gel-filtration in working buffer (20 mM Hepes pH 8.0, 100 mM KCl, 50 mM MgCl2, 50 mM Na2SO4, 10 mM NaF, 1 mM BeSO4, 1 mM DTT); A280 and A485, fractions by SDS-PAGE; details: both partners purified
# T2 construct: GroEL chaperonin of the Escherichia coli GroE system; used as 'GroEL oligomer'; Expression and purification of GroEL are not described; also called GroEL oligomer
# T2 sequence (P0A6F5 whole entry): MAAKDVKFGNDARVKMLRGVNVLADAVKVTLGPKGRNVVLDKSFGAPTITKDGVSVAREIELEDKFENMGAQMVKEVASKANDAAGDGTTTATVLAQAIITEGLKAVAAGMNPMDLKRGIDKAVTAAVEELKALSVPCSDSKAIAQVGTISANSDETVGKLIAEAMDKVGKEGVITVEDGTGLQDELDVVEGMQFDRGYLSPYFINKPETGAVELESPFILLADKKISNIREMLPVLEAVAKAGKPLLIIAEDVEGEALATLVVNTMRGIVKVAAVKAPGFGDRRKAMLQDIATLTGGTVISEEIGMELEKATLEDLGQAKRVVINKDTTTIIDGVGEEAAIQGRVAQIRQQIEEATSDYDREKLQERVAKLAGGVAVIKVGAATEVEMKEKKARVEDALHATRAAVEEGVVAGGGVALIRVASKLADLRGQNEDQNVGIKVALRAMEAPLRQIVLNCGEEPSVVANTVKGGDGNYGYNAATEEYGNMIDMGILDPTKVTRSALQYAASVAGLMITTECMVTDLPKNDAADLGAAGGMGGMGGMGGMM
Molecule,increase in melting temperature (dTm) [1],further results
Nc1nc2c(c(=O)[nH]1)N=C(CNc1ccc(C(=O)N[C@@H](CCC(=O)O)C(=O)O)cc1)CN2 [dihydrofolate],~ 31 °C,
NC(=O)C1=CN([C@@H]2O[C@H](COP(=O)(O)OP(=O)(O)OC[C@H]3O[C@@H](n4cnc5c(N)ncnc54)[C@H](OP(=O)(O)O)[C@@H]3O)[C@@H](O)[C@H]2O)C=CC1 [NADPH],~ 8 °C,
B1,,Km (purified protein): 33 (±2) µM
B2,,binding result (GroEL): binds
